Bounds are passed on as bounds.

In one assay the target is LcrF (VirF) (Yersinia pestis, UniProt P28808). Put plainly: biochemical. It is filed as binding, Y. pseudotuberculosis.
The subject of assay [1] is Y. pseudotuberculosis cytotoxicity toward J774 cells. As to the kind of experiment: microbe, parasite or virus in culture. As to conditions: Yersinia pseudotuberculosis, J774, read-out: % Cytotoxicity.
Assay [2] relates to P. aeruginosa cytotoxicity toward J774 cells. As to the kind of experiment: Inhibition of P. aeruginosa cytotoxicity toward J774 macrophage-like cells, whole cell LDH release assay (CytoTox 96). On the set-up: dose or concentration left out as unconfirmed. As to conditions: Pseudomonas aeruginosa, J774, read-out: % Cytotoxicity. Background: Release of lactate dehydrogenase indicates damage to the cell membrane.

The target of the next assay is T1, ExsA (Pseudomonas aeruginosa, UniProt P26993).
T1 construct: made in house
T1 sequence (P26993 1-278): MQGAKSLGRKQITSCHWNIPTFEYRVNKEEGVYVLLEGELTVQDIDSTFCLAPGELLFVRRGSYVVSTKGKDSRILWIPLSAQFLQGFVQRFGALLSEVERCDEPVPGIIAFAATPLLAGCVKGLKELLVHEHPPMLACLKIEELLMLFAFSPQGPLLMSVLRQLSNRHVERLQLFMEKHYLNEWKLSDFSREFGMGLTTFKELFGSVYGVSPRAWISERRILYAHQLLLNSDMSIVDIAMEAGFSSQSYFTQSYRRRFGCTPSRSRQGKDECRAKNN
Put plainly: Inhibition of ExsA-DNA binding, cell-free chemiluminescence assay. Also noted: species or system P. aeruginosa.

LcrF (VirF), sequence (P28808 whole entry, looked up): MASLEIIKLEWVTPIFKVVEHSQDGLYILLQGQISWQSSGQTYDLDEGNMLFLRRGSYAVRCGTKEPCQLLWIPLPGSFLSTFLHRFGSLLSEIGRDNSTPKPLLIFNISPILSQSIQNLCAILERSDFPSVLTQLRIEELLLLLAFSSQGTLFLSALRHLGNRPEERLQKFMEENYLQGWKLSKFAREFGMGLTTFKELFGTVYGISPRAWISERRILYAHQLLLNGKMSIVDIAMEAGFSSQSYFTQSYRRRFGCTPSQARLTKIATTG

In general, IC50 refers to the concentration that gives 50% inhibition. For the compound `O=C(/C=C/c1ccc(F)cc1)Nc1ccc(-c2nc3ccc(Cl)cc3n2O)cc1` [AG], the IC50 on LcrF (VirF) was greater than 50 µM. In addition, the activity at 50 µg/mL in assay [1] was 75 to 99%. Further, in assay [2], the activity fell in the range of 75 to 99%.
`O=C(O)Cc1cc([N+](=O)[O-])cc2c1nc(-c1ccc(NC(=O)/C=C/c3ccc(F)cc3)cc1)n2O` [AH]: at LcrF (VirF), the IC50 was in the range of 10 to 25 µM. The activity at 50 µg/mL in assay [1] fell in the range of 75 to 99%. In assay [2], the activity was in the range of 75 to 99%.
Turning to `CC(=O)c1ccc(/C=C/C(=O)Nc2ccc(-c3nc4ccc(Cl)cc4n3O)cc2)cc1` [B], the results for the IC50 against LcrF (VirF) and on ExsA were greater than 50 µM and 10 to 25 µM, respectively. Further, the activity at 50 µg/mL in assay [1] lay within 75 to 99%. For the same compound, the activity in assay [2] lay within 75 to 99%.
Consider `CC(=O)c1ccc(/C=C/C(=O)Nc2ccc(-c3nc4ccc(C#N)cc4n3O)cc2)cn1` [Compound A, (E)-3-(6-Acetyl-pyridin-3-yl)-N-[4-(6-cyano-1-hydroxy-1H-benzoimidazol-2-yl)-phenyl]-acrylamide], for which the IC50 against LcrF (VirF) is 25 to 50 µM; at ExsA, greater than 50 µM. Moreover, the activity at 50 µg/mL in assay [1] was less than 75%. Further, in assay [2], the activity was less than 75%.
In turn, `O=C(O)Cc1cc([N+](=O)[O-])cc2c1nc(-c1ccc(NC(=O)c3ccc(-n4ccnc4)cc3)cc1)n2O` [Compound AA, {1-Hydroxy-2-[4-(4-imidazol-1-yl-benzoylamino)-phenyl]-6-nitro-1H-benzoimidazol-4-yl}-acetic acid] gave an IC50 on LcrF (VirF) of less than 10 µM. For the same compound, the activity at 50 µg/mL in assay [1] was less than 75%. Also, the activity in assay [2] is less than 75%.
`CC(=O)c1ccc2nc(-c3ccc(NC(=O)/C=C/c4ccc(F)cc4)cc3)n(O)c2c1` [Compound AB, (E)-N-[4-(6-Acetyl-1-hydroxy-1H-benzoimidazol-2-yl)-phenyl]-3-(4-fluoro-phenyl)-acrylamide] had an IC50 at LcrF (VirF) of 25 to 50 µM. In assay [1], the activity at 50 µg/mL is 75 to 99%. In addition, the activity in assay [2] was 75 to 99%.
As to `O=C(/C=C/c1ccc(F)cc1)Nc1ccc(-c2nc3ccc(F)cc3n2O)cc1` [Compound AC, (E)-N-[4-(6-Fluoro-1-hydroxy-1H-benzoimidazol-2-yl)-phenyl]-3-(4-fluoro-phenyl)-acrylamide], on LcrF (VirF), the half-maximal inhibitory concentration (IC50) was greater than 50 µM. Further, in assay [1], the activity at 50 µg/mL lay in the range of 75 to 99%. Besides, the activity in assay [2] was 75 to 99%.
On LcrF (VirF), `CS(=O)(=O)c1ccc2nc(-c3ccc(NC(=O)/C=C/c4ccc(F)cc4)cc3)n(O)c2c1` [Compound AD, (E)-3-(4-Fluoro-phenyl)-N-[4-(1-hydroxy-6-methanesulfonyl-1H-benzoimidazol-2-yl)-phenyl]-acrylamide] returned an IC50 greater than 50 µM. The activity at 50 µg/mL in assay [1] lay in the range of 75 to 99%. The activity in assay [2] was in the range of 75 to 99%.
As for `O=C(/C=C/c1ccc(F)cc1)Nc1ccc(-c2nc3ccccc3n2O)cc1` [Compound AE, (E)-3-(4-Fluoro-phenyl)-N-[4-(1-hydroxy-1H-benzoimidazol-2-yl)-phenyl]-acrylamide], at LcrF (VirF), the IC50 was greater than 50 µM. Besides, the activity at 50 µg/mL in assay [1] fell in the range of 75 to 99%. In addition, the activity in assay [2] was 75 to 99%.
Compound `O=C(/C=C/c1ccc(F)cc1)Nc1ccc(-c2nc3ccc(C(F)(F)F)cc3n2O)cc1` [Compound AF, (E)-3-(4-Fluoro-phenyl)-N-[4-(1-hydroxy-6-trifluoromethyl-1H-benzoimidazol-2-yl)-phenyl]-acrylamide] yielded an IC50 on LcrF (VirF) greater than 50 µM. Further, the activity at 50 µg/mL in assay [1] lay in the range of 75 to 99%. Moreover, the activity in assay [2] fell in the range of 75 to 99%.
Compound `O=C(/C=C/c1ccc(F)cc1)Nc1ccc(-c2nc3ccc(C(=O)O)cc3n2O)cc1` [Compound AI, 2-{4-[(E)-3-(4-Fluoro-phenyl)-acryloylamino]-phenyl}-3-hydroxy-3H-benzoimidazole-5-carboxylic acid] displayed an IC50 at LcrF (VirF) of 25 to 50 µM. Further, in assay [1], the activity at 50 µg/mL was less than 75%. In addition, the activity in assay [2] lay in the range of 75 to 99%.
With `O=C(Nc1ccc(-c2nc3ccc([N+](=O)[O-])cc3n2O)cc1)c1ccc(-n2cccn2)nc1` [Compound I], the IC50 at LcrF (VirF) and at ExsA was 25 to 50 µM each time. Also, the activity at 50 µg/mL in assay [1] is less than 75%. The activity in assay [2] is 75 to 99%.
As for `O=C(Nc1ccc(-c2nc3ccc([N+](=O)[O-])cc3n2O)cc1)c1cccc(N2CCOCC2)n1` [Compound N, 6-Morpholin-4-yl-pyridine-2-carboxylic acid [4-(1-hydroxy-6-nitro-1H-benzoimidazol-2-yl)-phenyl]-amide], the IC50 was greater than 50 µM against LcrF (VirF) and 10 to 25 µM on ExsA. In addition, in assay [1], the activity at 50 µg/mL lay within 75 to 99%. Moreover, in assay [2], the activity was 75 to 99%.
For `CC(=O)c1ccc(C(=O)Nc2ccc(-c3nc4c(CC(=O)O)cc([N+](=O)[O-])cc4n3O)cc2)cc1` [Compound R, {2-[4-(4-Acetyl-benzoylamino)-phenyl]-1-hydroxy-6-nitro-1H-benzoimidazol-4-yl}-acetic acid], the IC50 against LcrF (VirF) and on ExsA was 25 to 50 µM in each case. In addition, in assay [1], the activity at 50 µg/mL fell in the range of 75 to 99%. In addition, in assay [2], the activity was in the range of 75 to 99%.
As for `O=C(Nc1ccc(-c2nc3ccc([N+](=O)[O-])cc3n2O)cc1)c1ccnc(N2CCOCC2)c1` [Compound T], the IC50 on LcrF (VirF) and on ExsA was greater than 50 µM each time. For the same compound, the activity at 50 µg/mL in assay [1] is less than 75%. Besides, the activity in assay [2] fell in the range of 75 to 99%.
Regarding `CSc1ccc2nc(-c3ccc(NC(=O)/C=C/c4ccc(C(C)=O)cc4)cc3)n(O)c2c1` [Compound U, (E)-3-(4-Acetyl-phenyl)-N-[4-(1-hydroxy-6-methylsulfanyl-1H-benzoimidazol-2-yl)-phenyl]-acrylamide], the IC50 at LcrF (VirF) is greater than 50 µM; at ExsA it was 10 to 25 µM. Besides, in assay [1], the activity at 50 µg/mL was 75 to 99%. Besides, the activity in assay [2] was 75 to 99%.
For the compound `Cc1nc(C(F)(F)F)ccc1C(=O)Nc1ccc(-c2nc3ccc([N+](=O)[O-])cc3n2O)cc1` [Compound W, N-[4-(1-Hydroxy-6-nitro-1H-benzoimidazol-2-yl)-phenyl]-2-methyl-6-trifluoromethyl-nicotinamide], the half-maximal inhibitory concentration (IC50) at LcrF (VirF) and at ExsA was greater than 50 µM each time. For the same compound, in assay [1], the activity at 50 µg/mL was 75 to 99%. The activity in assay [2] lay within 75 to 99%.
In the case of `O=C(Nc1ccc(-c2nc3ccc([N+](=O)[O-])cc3n2O)cc1)c1ccc(OCC(F)(F)F)nc1` [Compound X, N-[4-(1-Hydroxy-6-nitro-1H-benzoimidazol-2-yl)-phenyl]-6-(2,2,2-trifluoro-ethoxy)-nicotinamide], the IC50 on LcrF (VirF) and at ExsA was 25 to 50 µM throughout. The activity at 50 µg/mL in assay [1] lay within 75 to 99%. For the same compound, in assay [2], the activity lay in the range of 75 to 99%.
As for `O=C(Nc1ccc(-c2nc3ccc([N+](=O)[O-])cc3n2O)cc1)c1ccc(C(O)(O)C(F)(F)F)cc1` [E], the 50% inhibitory concentration (IC50) on LcrF (VirF) and on ExsA was greater than 50 µM throughout. Moreover, the activity at 50 µg/mL in assay [1] lay in the range of 75 to 99%. The activity in assay [2] lay in the range of 75 to 99%.
As for `N#Cc1ccc2nc(-c3ccc(NC(=O)c4ccc(C(O)(O)C(F)(F)F)cc4)cc3)n(O)c2c1` [F], the IC50 at LcrF (VirF) was greater than 50 µM; at ExsA it was 10 to 25 µM. In assay [1], the activity at 50 µg/mL was 75 to 99%. Moreover, in assay [2], the activity was 75 to 99%.
Consider `O=C(/C=C/c1ccc(C(O)(O)C(F)(F)F)cc1)Nc1ccc(-c2nc3ccc([N+](=O)[O-])cc3n2O)cc1` [K], for which the IC50 on LcrF (VirF) and at ExsA was greater than 50 µM each time. Further, in assay [1], the activity at 50 µg/mL was 75 to 99%. Besides, in assay [2], the activity was 75 to 99%.
Take `N#Cc1ccc2nc(-c3ccc(NC(=O)/C=C/c4ccc(C(O)(O)C(F)(F)F)cc4)cc3)n(O)c2c1` [L]: the IC50 was greater than 50 µM against LcrF (VirF) and 10 to 25 µM at ExsA. In addition, the activity at 50 µg/mL in assay [1] was 75 to 99%. The activity in assay [2] was in the range of 75 to 99%.
Consider `CN1CCN(c2ccc(C(=O)Nc3ccc(-c4nc5ccc([N+](=O)[O-])cc5n4O)cc3)cn2)CC1` [O], for which the IC50 against LcrF (VirF) and at ExsA was greater than 50 µM in each case. Moreover, in assay [1], the activity at 50 µg/mL fell in the range of 75 to 99%. Further, the activity in assay [2] fell in the range of 75 to 99%.
For the compound `O=C(O)Cc1cc([N+](=O)[O-])cc2c1nc(-c1ccc(NC(=O)c3ccc(N4CCOCC4)nc3)cc1)n2O` [Q], the IC50 at LcrF (VirF) and on ExsA was 25 to 50 µM throughout. In addition, the activity at 50 µg/mL in assay [1] was in the range of 75 to 99%. For the same compound, the activity in assay [2] was in the range of 75 to 99%.
Regarding `O=C(Nc1ccc(-c2nc3ccc([N+](=O)[O-])cc3n2O)cc1)c1ccc(N2CCCCC2)nc1` [S], the half-maximal inhibitory concentration (IC50) was greater than 50 µM at LcrF (VirF) and 25 to 50 µM at ExsA. Besides, the activity at 50 µg/mL in assay [1] fell in the range of 75 to 99%. For the same compound, in assay [2], the activity was 75 to 99%.
For the compound `CN(C)c1ccc(C(=O)Nc2ccc(-c3nc4ccc([N+](=O)[O-])cc4n3O)cc2)cn1` [Y], the IC50 against LcrF (VirF) and on ExsA was 10 to 25 µM in each case. Also, the activity at 50 µg/mL in assay [1] is less than 75%. Moreover, the activity in assay [2] lay in the range of 75 to 99%.
For `CN(C)c1ccc(/C=C/C(=O)Nc2ccc(-c3nc4ccc([N+](=O)[O-])cc4n3O)cc2)cn1` [Z], the IC50 against LcrF (VirF) and at ExsA was greater than 50 µM throughout. Further, in assay [1], the activity at 50 µg/mL was in the range of 75 to 99%. For the same compound, in assay [2], the activity was in the range of 75 to 99%.

(Values after patent publication US20110059962A1, “TRANSCRIPTION FACTOR MODULATING COMPOUNDS AND METHODS OF USE THEREOF” (priority 2009, published 2011).)
